Assay [1] deals with T1, full-length CYP46A1 (Homo sapiens, UniProt Q9Y6A2). The experiment in a line: Inhibition/stimulation of cholesterol hydroxylase activity at fixed 43 μM test compound. It is filed as biochemical. Particulars: for inhibition of cholesterol hydroxylation (in words): FIG. 4A-4C; for CHO hydroxylation: remaining activity, None = 100, 43 μM added steroid; for Activity: cholesterol hydroxylation by CYP46A1, % of no compound; for inhibition at 43 µM: read-out: inhibition of the CYP46A1.

For a further assay, the target named is Δ(2-50)CYP46A1dH (Homo sapiens, UniProt Q9Y6A2). The experiment in a line: Kinetic studies, reconstituted system with cytochrome P450 reductase, truncated CYP46A1. The settings on record: compound as substrate; for kcat: Δ(2-50) CYP46A1 with C-terminal 4x His-tag, 37° C.
Assay [2] has as its target T1, full-length CYP46A1. The experiment in a line: Kinetic studies, reconstituted system with cytochrome P450 reductase, full-length CYP46A1. The settings on record: compound as substrate; for kcat: Full-length CYP46A1 with C-terminal 4x His-tag, 37° C.
Protocol: (§2) The ability of recombinant CYP46A1 to metabolize CH-3S was tested using the reconstituted with cytochrome P450 reductase in vitro system. After termination of the enzyme reaction, the substrate and products were extracted, solvolyzed, converted into trimethylsilyl ethers and analyzed by gas chromatography-mass spectrometry as described (23). […] The reaction conditions were optimized for the formation of only one product.
(§3) The reconstituted system (1 ml) contained 0.1-0.25 μM P450, 0.5 μM NADPH cytochrome P450 oxidoreductase, varying concentrations of cold substrate (1-75 μM), 250,000 cpm of radiolabeled substrate, and 2U of catalase. […] The organic phase was isolated, evaporated, dissolved in acetonitrile, and subjected to HPLC. […] Substrate metabolism was <18% and linear with reaction time and enzyme concentration.
The target of assay [3] is T2, CYP46A1 (Homo sapiens, UniProt Q9Y6A2). The experiment in a line: Spectral binding studies. More on the design: 4×His (C). The method, then: (§1) Titrations of CYP46A1dH were carried out in 50 mM KPi, pH 7.2, containing 100 mM NaCl and 0.02% Cymal-6. Steroids were added from 0.2-5 mM stocks in 2.5-45% aqueous 2-hydroxypropyl-p-cyclodextrin; clobenpropit, thioperamide, phenacetin, acetaminophen, 4′-(2-hydroxyethoxy)-acetanilide, quinine, quinidine, lansoprazole, and dapsone were dissolved in water, and tranylcypromine in 50% MetOH. The Kd and maximal absorbance change were estimated by non-linear least squares fitting using the quadratic form of the single-site binding equation (30).
Target sequence in this assay (Q9Y6A2 with tags, fused parts or gaps): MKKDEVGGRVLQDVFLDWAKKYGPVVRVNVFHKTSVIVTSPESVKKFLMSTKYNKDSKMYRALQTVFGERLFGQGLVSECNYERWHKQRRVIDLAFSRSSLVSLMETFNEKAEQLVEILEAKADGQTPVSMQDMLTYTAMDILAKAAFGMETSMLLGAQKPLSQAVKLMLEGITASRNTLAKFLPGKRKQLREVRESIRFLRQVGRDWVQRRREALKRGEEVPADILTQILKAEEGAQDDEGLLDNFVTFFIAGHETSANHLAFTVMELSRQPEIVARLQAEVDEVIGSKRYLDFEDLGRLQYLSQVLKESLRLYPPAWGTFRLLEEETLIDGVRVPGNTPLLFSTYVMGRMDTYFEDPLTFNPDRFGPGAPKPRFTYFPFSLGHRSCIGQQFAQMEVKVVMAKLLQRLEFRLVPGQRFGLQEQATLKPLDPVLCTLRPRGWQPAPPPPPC

For assay [4], the target named is T2, CYP46A1. The assay can be described thus: Spectral binding studies. The settings on record: Table 2. More on the design: fused on or other part: C-terminal 4xHis tag (dH). On the procedure: as §1
Target sequence in this assay (Q9Y6A2 whole entry): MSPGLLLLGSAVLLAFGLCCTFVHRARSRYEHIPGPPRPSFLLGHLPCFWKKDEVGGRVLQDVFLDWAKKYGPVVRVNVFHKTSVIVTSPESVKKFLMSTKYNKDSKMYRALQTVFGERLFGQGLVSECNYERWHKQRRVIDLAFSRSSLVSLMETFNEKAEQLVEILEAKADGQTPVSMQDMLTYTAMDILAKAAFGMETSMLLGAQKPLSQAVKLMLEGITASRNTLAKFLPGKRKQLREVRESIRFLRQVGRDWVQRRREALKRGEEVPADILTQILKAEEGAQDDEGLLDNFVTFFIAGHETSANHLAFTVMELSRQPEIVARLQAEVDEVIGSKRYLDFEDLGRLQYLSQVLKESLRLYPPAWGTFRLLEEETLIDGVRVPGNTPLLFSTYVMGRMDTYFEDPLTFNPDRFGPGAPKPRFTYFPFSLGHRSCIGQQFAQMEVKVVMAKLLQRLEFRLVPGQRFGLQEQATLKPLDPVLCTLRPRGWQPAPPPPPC
Assay [5] has as its target T2, CYP46A1. The assay can be described thus: In vitro IC50 and Ki for CYP46A1-catalysed hydroxylation. It is filed as biochemical. More on the design: Recombinant full-length human CYPs 46A1 and 27A1 and bovine CYP11A1 were expressed and purified; made in house. The settings on record: Ki = IC50/2 assuming competitive inhibition; 5.4 μM cholesterol (at Km); read-out: Ki. On the procedure: Cholesterol hydroxylation by CYP46A1 was assayed for 20 min at 37° C. in 1 ml of 50 mM KPi, pH 7.2, containing 100 mM NaCl, 0.02% Cymal 6, 40 μg dilauroylglycerol-3-phosphatidylcholine and 2U of catalase. […] The enzymatic reaction was initiated by NADPH (final 1 mM) and terminated by vortexing with 2 ml of CH2Cl2. The organic phase was isolated, evaporated, dissolved in methanol, and subjected to HPLC. […] In addition, the Ki for cholesterol 24-hydroxylation was estimated assuming a model of competitive inhibition.
Target sequence in this assay (Q9Y6A2 whole entry): as above

Setting [6] is: 2.7 μM cholesterol, 43 μM compound.
Where [7] appears, read: 2.7 μM cholesterol, 43 μM compound, FIG. 4B, 4D, 4E.

Counter-ions that a name gives are not always drawn. Like-named read-outs stand apart in the source and are kept apart here.

One may read the Km as the substrate concentration at which the rate is half of its maximum. As a reminder, the kcat is the maximal rate divided by the concentration of active sites. The term Kd denotes a measure of binding affinity in units of concentration. For orientation: inhibition means the share of the control response that was lost under treatment. The Ki is a measure of affinity in units of concentration, obtained from inhibition or displacement.

Sequence of Δ(2-50)CYP46A1dH (Q9Y6A2 with tags, fused parts or gaps): as the sequence (Q9Y6A2 with tags, fused parts or gaps) above
T1 sequence (Q9Y6A2 whole entry): as the sequence (Q9Y6A2 whole entry) above
Protocol for Δ(2-50)CYP46A1dH: as §2, §3

On to `Clc1ccc(-c2c[nH]cn2)cc1` [4-CPi, 4-(4-chlorophenyl)imidazole], for which, at full-length CYP46A1 [1] (setting [6]), the “inhibition of cholesterol hydroxylation (in words)” value (“inhibition … (in words)” for short) is “significant inhibition”.

Take `CC(C)[C@@H](O)CC[C@@H](C)[C@H]1CC[C@H]2[C@@H]3CC=C4C[C@@H](O)CC[C@]4(C)[C@H]3CC[C@]12C` [24OH—CH, 24S-hydroxycholesterol]: the Michaelis constant (Km) on Δ(2-50)CYP46A1dH (Δ(2-50) CYP46A1) came out at 1.5 µM; at full-length CYP46A1 [2] (Full-length CYP46A1), 3.9 µM. For the same molecule, the catalytic constant (kcat) on Δ(2-50)CYP46A1dH amounted to 0.0142 s⁻¹; on full-length CYP46A1 [2] it was 0.0153 s⁻¹.

Take `CC(C)CCC[C@@H](C)[C@H]1CC[C@H]2[C@@H]3CC=C4C[C@@H](OS(=O)(=O)O)CC[C@]4(C)[C@H]3CC[C@]12C` [Cholesterol-SO4, cholesterol sulfate]: the equilibrium dissociation constant (Kd) turned out to be 7 nM at CYP46A1 [3] and 50 ± 3 nM at CYP46A1 [4]. Further, the figures for the turnover number (kcat) on Δ(2-50)CYP46A1dH and at full-length CYP46A1 [2] were 0.0417 s⁻¹ and 0.00767 s⁻¹, respectively.

In the case of `CC(C)CCC[C@@H](C)[C@H]1CC[C@H]2[C@@H]3CC=C4C[C@@H](O)CC[C@]4(C)[C@H]3CC[C@]12C` [Cholesterol], the Kd is 100 nM at CYP46A1 [3] (Δ(2-50)CYP46A1dH, read-out: estimated Kd) and 670 ± 20 nM at CYP46A1 [4]. The molecule further displayed a CHO hydroxylation at full-length CYP46A1 [1] (2.7 μM cholesterol) of 27 ± 3%.

For `C[C@]12CC[C@@H]3c4ccc(O)cc4CC[C@H]3[C@@H]1CC[C@@H]2O` [Estradiol], on full-length CYP46A1 [1] (2.7 μM cholesterol), the CHO hydroxylation was determined as 32 ± 3%.

Consider `Cc1cccc(C)c1OCC(C)N` (stereo not shown) [Mexiletine], for which the Activity at full-length CYP46A1 [1] (43 μM compound) is given as 107 ± 3%.

Regarding `CC(=O)Nc1ccc(OCCO)cc1` [Phenacetin analog 1, 4′-(2-hydroxyethoxy)-acetanilide], at full-length CYP46A1 [1] (43 μM compound), the “increase (stimulation) of cholesterol 24-hydroxylation” value is given as 45% and the Activity was 145 ± 5%.

With `CCOc1ccc(NC(C)=O)cc1` [Phenacetin], the Activity at full-length CYP46A1 [1] (43 μM compound) is 135 ± 5%.

`CC(=O)[C@H]1CC[C@H]2[C@@H]3CC=C4C[C@@H](O)CC[C@]4(C)[C@H]3CC[C@]12C` [Pregnenolone] displayed a CHO hydroxylation on full-length CYP46A1 [1] (2.7 μM cholesterol) of 32 ± 1%. Also, the “Spectral Kd” value at CYP46A1 [4] was “Not determined, no spectral”.

In the case of `C[C@]12CC[C@H]3[C@@H](CCC4=CC(=O)CC[C@@]43C)[C@@H]1CC[C@@H]2O` [Testosterone], the CHO hydroxylation at full-length CYP46A1 [1] (2.7 μM cholesterol) turned out to be 49 ± 4%.

Consider `CN/C(=N/CCSCc1nc[nH]c1C)NC#N` [cimetidine], for which the inhibition at 43 µM at full-length CYP46A1 [1] (setting [7]) was more than 90%.

In the case of `NC(=NCc1ccc(Cl)cc1)SCCCc1cnc[nH]1` [clobenpropit], at full-length CYP46A1 [1], the inhibition at 43 µM was more than 90%.

In the case of `Clc1ccccc1C(c1ccccc1)(c1ccccc1)n1ccnc1` [clotrimazole], at full-length CYP46A1 [1] (setting [6]), the “inhibition … (in words)” value is reported as “significant inhibition”.

In the case of `NC(N)=Nc1nc(CSCCC(N)=NS(N)(=O)=O)cs1` [famotidine], the “inhibition … (in words)” value at full-length CYP46A1 [1] (setting [6]) is “inhibited cholesterol hydroxylation”.

For the molecule `CNC(=C[N+](=O)[O-])NCCSCc1csc(CN(C)C)n1` [nizatidine], at full-length CYP46A1 [1] (setting [6]), the “inhibition … (in words)” value is listed as “inhibited cholesterol hydroxylation”.

Consider `CNC(=C[N+](=O)[O-])NCCSCc1ccc(CN(C)C)o1` [ranitidine], for which the inhibition at 43 µM at full-length CYP46A1 [1] (setting [7]) was more than 90%.

On to `S=C(NC1CCCCC1)N1CCC(c2cnc[nH]2)CC1` [thioperamide], for which the “inhibition … (in words)” value on full-length CYP46A1 [1] (setting [6]) was “inhibited cholesterol hydroxylation”.

In turn, Acetaminophen had an Activity on full-length CYP46A1 [1] (43 μM compound) of 132 ± 4%.

In the case of DHEA, at full-length CYP46A1 [1] (2.7 μM cholesterol), the CHO hydroxylation was determined as 58 ± 3%.

As to DHEA sulfate [DHEA-SO4], at full-length CYP46A1 [1] (2.7 μM cholesterol), the CHO hydroxylation is reported as 33 ± 3%.

On full-length CYP46A1 [1] (2.7 μM cholesterol), estradiol sulfate [Estradiol-SO4] displayed a CHO hydroxylation of 27 ± 2%.

For the molecule pregnenolone sulfate [Pregnenolone-SO4], the CHO hydroxylation at full-length CYP46A1 [1] (2.7 μM cholesterol) was found to be 8 ± 2%. Further, at CYP46A1 [5], the Ki was 2500 nM.

As for testosterone sulfate [Testosterone-SO4], the CHO hydroxylation at full-length CYP46A1 [1] (2.7 μM cholesterol) came to 40 ± 2%.

Values taken from patent US20170182047A9, “Post-Translational Regulation of Catalytic Activities of Cytochrome P450 46A1 and Uses Thereof” (The Board of Regents of the University of Texas System, priority 2007, published 2017).
